{"source": "ChEMBL document CHEMBL1201862", "about": "“PubChem BioAssay data set” (2004)", "key": {"HT-1080": {"system": "HT-1080", "assay": "HT1080 cell viability loss – fluorescence readout (AID 620)", "type": "functional, cell-based", "conditions": "Homo sapiens"}, "[1]": {"biological_target": "T1, Oxysterols receptor LXR-beta (Homo sapiens, UniProt P55055)", "T1 sequence (P55055 whole entry)": "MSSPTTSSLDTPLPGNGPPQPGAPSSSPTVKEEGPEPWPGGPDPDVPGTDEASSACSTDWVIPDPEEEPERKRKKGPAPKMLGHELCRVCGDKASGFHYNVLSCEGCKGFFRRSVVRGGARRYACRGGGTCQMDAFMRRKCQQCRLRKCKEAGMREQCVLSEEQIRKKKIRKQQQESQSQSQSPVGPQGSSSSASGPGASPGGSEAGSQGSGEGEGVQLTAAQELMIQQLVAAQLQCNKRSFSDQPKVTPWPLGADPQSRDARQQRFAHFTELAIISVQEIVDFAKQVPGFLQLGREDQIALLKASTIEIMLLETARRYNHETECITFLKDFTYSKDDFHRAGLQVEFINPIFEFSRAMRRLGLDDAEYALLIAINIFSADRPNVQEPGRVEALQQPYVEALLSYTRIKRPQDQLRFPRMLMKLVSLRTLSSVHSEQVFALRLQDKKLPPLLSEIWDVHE", "type": "functional, cell-based"}, "[2]": {"biological_target": "Luciferin 4-monooxygenase (Photinus pyralis, UniProt P08659)", "sequence (P08659 whole entry)": "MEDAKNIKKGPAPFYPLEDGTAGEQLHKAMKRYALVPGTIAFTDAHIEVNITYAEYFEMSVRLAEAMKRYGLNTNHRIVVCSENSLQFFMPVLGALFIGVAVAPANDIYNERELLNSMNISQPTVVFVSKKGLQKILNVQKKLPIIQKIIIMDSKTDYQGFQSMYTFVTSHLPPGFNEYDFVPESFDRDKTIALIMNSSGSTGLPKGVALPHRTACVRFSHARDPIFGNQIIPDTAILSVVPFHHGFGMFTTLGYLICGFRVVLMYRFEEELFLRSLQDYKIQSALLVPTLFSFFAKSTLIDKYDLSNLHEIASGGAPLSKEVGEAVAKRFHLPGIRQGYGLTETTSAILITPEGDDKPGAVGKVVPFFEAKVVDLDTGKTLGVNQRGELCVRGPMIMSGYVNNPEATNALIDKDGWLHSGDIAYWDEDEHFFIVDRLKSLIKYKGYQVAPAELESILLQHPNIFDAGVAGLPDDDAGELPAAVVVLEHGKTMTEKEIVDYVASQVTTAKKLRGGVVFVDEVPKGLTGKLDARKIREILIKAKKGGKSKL", "assay": "Counter Screen for Luciferase-based Assay Positives. [Related pubchem assays: 620, 618, 411 ]"}, "cells [3]": {"assay": "cells"}, "[4]": {"assay": "viability loss in HepG2 hepatoma cells – cell-based, ATP luminescence, cherry-pick, activator set 2, cytotoxicity control, dose response (AID 1053143)", "type": "functional"}, "[5]": {"assay": "OVCAR8 cell viability loss – plate reader, dry powder samples, PAX8 project, dose response (AID 743197)", "type": "functional, cell-based", "conditions": "OVCAR-8"}, "[6]": {"assay": "OVCAR-3 cell viability loss – plate reader, dry powder samples, PAX8 inhibitor project, dose response (AID 743044)", "type": "functional, cell-based"}, "Paired box protein Pax-8": {"biological_target": "Paired box protein Pax-8 (Homo sapiens, UniProt Q06710)", "sequence (Q06710 whole entry)": "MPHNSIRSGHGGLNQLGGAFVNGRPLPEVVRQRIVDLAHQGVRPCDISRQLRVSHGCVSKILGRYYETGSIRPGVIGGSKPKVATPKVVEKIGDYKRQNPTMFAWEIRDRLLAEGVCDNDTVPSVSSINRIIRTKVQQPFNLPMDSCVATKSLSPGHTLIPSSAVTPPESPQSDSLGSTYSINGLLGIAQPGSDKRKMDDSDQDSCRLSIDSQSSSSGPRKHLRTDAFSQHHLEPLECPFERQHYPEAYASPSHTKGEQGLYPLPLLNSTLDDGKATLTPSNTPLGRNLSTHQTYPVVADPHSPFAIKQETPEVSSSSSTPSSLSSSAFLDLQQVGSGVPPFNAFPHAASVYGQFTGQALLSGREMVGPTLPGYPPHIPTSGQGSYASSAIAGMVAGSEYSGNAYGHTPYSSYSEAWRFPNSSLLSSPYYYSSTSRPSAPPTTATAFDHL", "assay": "PAX8 transcriptional activity inhibition in RMG-I – RMG-I cells, luciferase, cherry-pick, dose response (AID 687027);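 further: luciferase reporter driven by Pax8 target thyroperoxidase promoter measured by SteadyGlo luminescence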", "type": "functional, cell-based"}, "[7]": {"assay": "IGROV1 cell killing – plate reader, dry powder samples, PAX8 inhibitor project, dose response (AID 743043)", "type": "functional, cell-based", "conditions": "IGROV-1"}, "[8]": {"assay": "viability loss in HEK293 kidney cells – cell-based, cherry-picks, set 5, cytotoxicity control, dose response (AID 1053117)", "type": "functional"}, "[9]": {"assay": "blockers of FN fibrillogenesis by fibroblasts – AH1F cells, Alexa488-FN fluorescence, cherry-picks, dose response (AID 1035475)", "type": "functional, cell-based"}, "[10]": {"assay": "T. cruzi growth inhibition in host cells, dose response, cell-based, plate reader, dry powder, set 2 (AID 652275)", "type": "functional"}, "[11]": {"assay": "Luminescence Cell-Based Dose Confirmation HTS to Identify Activators of 5'UTR Stem-Loop Driven Alpha-Synuclein mRNA Translation in H4 Neuroglioblastoma Cells. [Related pubchem assays: 1829 (Project Summary), 1814 (Primary HTS)]", "type": "functional"}, "[12]": {"biological_target": "Peroxisome proliferator-activated receptor gamma/Nuclear receptor coactivator 2 (Homo sapiens, UniProt P37231)", "type": "functional"}, "cells [13]": {"assay": "cells", "conditions": "A549"}, "H4": {"system": "H4", "assay": "Luminescence Cell-Based Dose Response HTS to Identify Activators of 5'UTR Stem-Loop Driven Prion Protein mRNA Translation in H4 Neuroglioblastoma Cells. [Related pubchem assays: 1829 (Project Summary), 1814 (Primary HTS)]", "type": "functional", "conditions": "Homo sapiens"}, "[14]": {"biological_target": "Peroxisome proliferator-activated receptor gamma/Nuclear receptor coactivator 3 (Homo sapiens, UniProt P37231)", "sequence (P37231 whole entry)": "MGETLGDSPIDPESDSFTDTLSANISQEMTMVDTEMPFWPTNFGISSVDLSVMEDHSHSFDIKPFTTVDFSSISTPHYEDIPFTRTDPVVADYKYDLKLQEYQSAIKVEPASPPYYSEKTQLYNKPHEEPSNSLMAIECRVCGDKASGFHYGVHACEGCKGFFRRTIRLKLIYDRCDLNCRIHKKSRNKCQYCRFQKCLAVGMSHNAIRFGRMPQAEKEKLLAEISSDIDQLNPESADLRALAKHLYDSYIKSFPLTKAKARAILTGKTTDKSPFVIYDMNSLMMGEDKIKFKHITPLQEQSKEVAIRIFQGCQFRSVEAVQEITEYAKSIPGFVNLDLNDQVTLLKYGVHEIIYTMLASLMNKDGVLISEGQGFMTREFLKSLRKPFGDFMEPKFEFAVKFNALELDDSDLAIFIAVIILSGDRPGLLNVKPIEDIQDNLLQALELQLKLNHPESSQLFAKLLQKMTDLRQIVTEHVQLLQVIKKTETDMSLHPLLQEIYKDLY", "sequence (Q9Y6Q9 whole entry, further chain)": "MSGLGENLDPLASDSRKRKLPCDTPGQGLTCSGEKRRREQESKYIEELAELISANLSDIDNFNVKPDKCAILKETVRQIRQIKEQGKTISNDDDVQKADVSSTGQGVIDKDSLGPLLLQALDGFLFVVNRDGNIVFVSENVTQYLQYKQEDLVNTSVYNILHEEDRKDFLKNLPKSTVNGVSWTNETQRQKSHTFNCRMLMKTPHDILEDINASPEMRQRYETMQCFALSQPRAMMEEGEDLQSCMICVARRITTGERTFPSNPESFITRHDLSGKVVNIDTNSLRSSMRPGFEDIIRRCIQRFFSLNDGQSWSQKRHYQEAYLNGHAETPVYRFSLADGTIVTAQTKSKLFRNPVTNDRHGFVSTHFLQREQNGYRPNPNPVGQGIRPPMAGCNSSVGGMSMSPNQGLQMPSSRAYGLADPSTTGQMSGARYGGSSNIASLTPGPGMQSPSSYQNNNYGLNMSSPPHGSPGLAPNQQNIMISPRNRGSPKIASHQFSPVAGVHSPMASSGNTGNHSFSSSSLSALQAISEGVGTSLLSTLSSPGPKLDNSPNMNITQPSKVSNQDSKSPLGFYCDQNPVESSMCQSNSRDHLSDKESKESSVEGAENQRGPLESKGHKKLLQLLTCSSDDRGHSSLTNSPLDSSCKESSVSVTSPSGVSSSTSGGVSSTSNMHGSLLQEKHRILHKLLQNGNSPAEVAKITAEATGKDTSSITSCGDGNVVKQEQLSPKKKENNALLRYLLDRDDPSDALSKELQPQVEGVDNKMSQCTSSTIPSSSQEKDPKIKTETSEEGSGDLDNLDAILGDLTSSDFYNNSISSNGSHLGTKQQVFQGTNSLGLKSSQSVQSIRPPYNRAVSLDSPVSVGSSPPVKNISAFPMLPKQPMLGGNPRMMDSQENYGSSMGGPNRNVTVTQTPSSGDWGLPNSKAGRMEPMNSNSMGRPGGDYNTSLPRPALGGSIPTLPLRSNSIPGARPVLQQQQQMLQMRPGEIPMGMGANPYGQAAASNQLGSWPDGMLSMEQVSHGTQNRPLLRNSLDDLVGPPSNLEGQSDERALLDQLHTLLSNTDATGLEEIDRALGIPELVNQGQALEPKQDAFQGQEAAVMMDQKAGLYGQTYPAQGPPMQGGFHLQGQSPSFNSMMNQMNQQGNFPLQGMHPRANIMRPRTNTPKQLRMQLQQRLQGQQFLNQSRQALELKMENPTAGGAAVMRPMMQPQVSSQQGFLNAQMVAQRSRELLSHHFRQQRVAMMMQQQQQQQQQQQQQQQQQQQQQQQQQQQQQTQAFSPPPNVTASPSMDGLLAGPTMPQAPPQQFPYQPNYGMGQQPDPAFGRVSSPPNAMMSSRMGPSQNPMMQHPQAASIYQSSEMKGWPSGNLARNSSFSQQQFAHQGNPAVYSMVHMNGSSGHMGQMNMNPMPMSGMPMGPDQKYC", "type": "functional"}, "[15]": {"biological_target": "Peroxisome proliferator-activated receptor gamma/Nuclear receptor coactivator 1 (Homo sapiens, UniProt P37231)", "sequence (P37231 whole entry)": "as the sequence (P37231 whole entry) above", "sequence (Q15788 whole entry, further chain)": "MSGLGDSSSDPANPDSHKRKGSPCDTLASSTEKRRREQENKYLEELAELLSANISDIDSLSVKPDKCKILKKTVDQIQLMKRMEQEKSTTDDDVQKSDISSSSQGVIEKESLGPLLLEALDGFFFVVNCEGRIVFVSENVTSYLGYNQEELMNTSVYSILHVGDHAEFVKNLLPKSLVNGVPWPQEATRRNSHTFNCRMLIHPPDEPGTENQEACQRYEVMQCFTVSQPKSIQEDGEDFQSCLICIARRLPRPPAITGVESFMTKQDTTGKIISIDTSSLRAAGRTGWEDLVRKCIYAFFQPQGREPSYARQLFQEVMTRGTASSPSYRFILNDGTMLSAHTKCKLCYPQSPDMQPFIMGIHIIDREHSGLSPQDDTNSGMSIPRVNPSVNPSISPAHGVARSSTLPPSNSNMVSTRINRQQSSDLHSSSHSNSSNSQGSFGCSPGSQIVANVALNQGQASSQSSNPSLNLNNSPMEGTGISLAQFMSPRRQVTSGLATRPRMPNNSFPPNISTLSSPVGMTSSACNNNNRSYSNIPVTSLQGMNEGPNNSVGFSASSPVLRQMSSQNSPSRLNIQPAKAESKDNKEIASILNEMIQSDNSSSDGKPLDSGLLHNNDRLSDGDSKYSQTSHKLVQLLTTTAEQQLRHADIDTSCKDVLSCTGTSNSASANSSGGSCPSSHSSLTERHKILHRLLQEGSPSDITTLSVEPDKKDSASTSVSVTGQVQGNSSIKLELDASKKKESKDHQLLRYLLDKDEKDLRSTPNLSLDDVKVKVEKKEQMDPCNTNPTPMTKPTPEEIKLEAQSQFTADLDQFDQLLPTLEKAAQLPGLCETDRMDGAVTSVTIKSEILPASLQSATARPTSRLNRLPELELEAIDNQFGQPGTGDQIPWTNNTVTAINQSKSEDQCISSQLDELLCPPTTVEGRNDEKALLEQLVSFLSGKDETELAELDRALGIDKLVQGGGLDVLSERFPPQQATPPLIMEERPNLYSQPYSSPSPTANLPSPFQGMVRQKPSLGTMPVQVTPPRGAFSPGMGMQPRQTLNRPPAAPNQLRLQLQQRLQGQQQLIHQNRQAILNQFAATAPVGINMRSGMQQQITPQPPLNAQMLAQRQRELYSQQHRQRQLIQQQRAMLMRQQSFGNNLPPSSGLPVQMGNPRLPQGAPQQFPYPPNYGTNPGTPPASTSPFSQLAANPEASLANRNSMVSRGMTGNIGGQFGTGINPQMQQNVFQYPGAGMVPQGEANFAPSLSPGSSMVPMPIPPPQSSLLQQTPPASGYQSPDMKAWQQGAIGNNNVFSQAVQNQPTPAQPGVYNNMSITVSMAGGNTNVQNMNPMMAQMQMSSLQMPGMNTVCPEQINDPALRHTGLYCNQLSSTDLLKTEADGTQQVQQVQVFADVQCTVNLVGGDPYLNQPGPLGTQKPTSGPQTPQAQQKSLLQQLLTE", "type": "functional"}, "cells [16]": {"assay": "cells", "remark": "listed apart in the source"}, "[17]": {"assay": "Luminescence Cell-Based Dose Response HTS to Identify Activators of Luciferase Translation or Activity in H4 […] Cells. [Related pubchem assays: 1829 (Project Summary), 1814 (Primary HTS)]", "type": "functional"}}, "note": "Active and inactive are the calls of the source."}
{"smiles": "COc1cccc(-c2nc3cc(C)ccc3o2)c1", "values": [{"measurement": "EC50", "setting": "HT-1080", "value": "> 50 µM (not active)"}, {"measurement": "EC50", "setting": "[1]", "value": "> 67.6 µM (inactive)"}, {"measurement": "EC50", "setting": "[2]", "value": "> 100 µM (not active)"}, {"measurement": "EC50", "setting": "cells [3]", "value": "> 67.6 µM (inactive)"}, {"measurement": "AC50", "setting": "[4]", "value": "26 µM (active)"}]}
{"smiles": "C[C@@H]1CN([C@H](C)CO)C(=O)c2cc(NC(=O)Nc3ccccc3)ccc2O[C@@H](C)CCCCO[C@@H]1CN(C)Cc1ccc(C(F)(F)F)cc1", "values": [{"measurement": "AC50", "setting": "[5]", "value": "61.8 µM (active)"}, {"measurement": "AC50", "setting": "[6]", "value": "28.6 µM (active)"}, {"measurement": "AC50", "setting": "Paired box protein Pax-8", "value": "6.35 µM (active)"}, {"measurement": "AC50", "setting": "[7]", "value": "51.4 µM (active)"}]}
{"smiles": "C[C@H](CO)N1C[C@H](C)[C@@H](CN(C)Cc2ccc(C(F)(F)F)cc2)OCCCC[C@H](C)Oc2ccc(NS(=O)(=O)c3ccc(Cl)cc3)cc2C1=O", "values": [{"measurement": "AC50", "setting": "[5]", "value": "34.1 µM (active)"}, {"measurement": "AC50", "setting": "[6]", "value": "14.5 µM (active)"}, {"measurement": "AC50", "setting": "Paired box protein Pax-8", "value": "7.37 µM (active)"}, {"measurement": "AC50", "setting": "[7]", "value": "21.7 µM (active)"}]}
{"smiles": "C[C@H]1CN([C@@H](C)CO)C(=O)c2cc(-c3ccccc3)cnc2O[C@@H]1CN(C)C(=O)c1cccc(F)c1", "values": [{"measurement": "AC50", "setting": "[8]", "value": "> 52 µM (inactive)"}]}
{"smiles": "O=C(Nc1ccccc1F)N1C[C@H]2[C@@H](c3ccccc31)[C@H](CO)N2C(=O)C1CC1", "values": [{"measurement": "AC50", "setting": "[9]", "value": "> 70 µM (inactive)"}]}
{"smiles": "CN(C)CC#Cc1cccc(-c2nc(C(=O)NCCCN3CCOCC3)cc3c2[C@H](CCO)N([S+]([O-])C(C)(C)C)C3)c1", "note": "(stereo not given in full)", "values": [{"measurement": "AC50", "setting": "[10]", "value": "1.24 µM (active)"}]}
{"smiles": "CC(C)N1C[C@H](C)[C@@H](CN(C)Cc2ccc(Cl)cc2)Oc2c(cccc2-c2nnn(-c3ccncc3)n2)C1=O", "values": [{"measurement": "AC50", "setting": "[10]", "value": "0.12 µM (active)"}]}
{"smiles": "Cc1cccn2c(=O)c3cc(C(=O)NCCN4CCOCC4)c(=N)n(CCc4ccccc4)c3nc12", "values": [{"measurement": "EC50", "setting": "[11]", "value": "> 120 µM (not active)"}, {"measurement": "EC50", "setting": "[12]", "value": "> 79.4 µM (not active)"}, {"measurement": "AC50", "setting": "cells [13]", "value": "31.4 µM (active)"}, {"measurement": "EC50", "setting": "H4", "value": "> 120 µM (not active)"}, {"measurement": "EC50", "setting": "[14]", "value": "> 79.4 µM (not active)"}, {"measurement": "EC50", "setting": "[15]", "value": "> 79.4 µM (not active)"}, {"measurement": "AC50", "setting": "cells [16]", "value": "1.28 µM (active)"}, {"measurement": "EC50", "setting": "[17]", "value": "11 µM (active)"}]}
